Measurements reported in ChEMBL document CHEMBL5291721, “A preclinical secondary pharmacology resource illuminates target-adverse drug reaction associations of marketed drugs” (Nat Commun, 2023).

How the values were obtained:
[1] = molecular target: T1, Amine oxidase [flavin-containing] A (Homo sapiens, UniProt P21397); assay type: functional
T1 sequence (P21397 whole entry): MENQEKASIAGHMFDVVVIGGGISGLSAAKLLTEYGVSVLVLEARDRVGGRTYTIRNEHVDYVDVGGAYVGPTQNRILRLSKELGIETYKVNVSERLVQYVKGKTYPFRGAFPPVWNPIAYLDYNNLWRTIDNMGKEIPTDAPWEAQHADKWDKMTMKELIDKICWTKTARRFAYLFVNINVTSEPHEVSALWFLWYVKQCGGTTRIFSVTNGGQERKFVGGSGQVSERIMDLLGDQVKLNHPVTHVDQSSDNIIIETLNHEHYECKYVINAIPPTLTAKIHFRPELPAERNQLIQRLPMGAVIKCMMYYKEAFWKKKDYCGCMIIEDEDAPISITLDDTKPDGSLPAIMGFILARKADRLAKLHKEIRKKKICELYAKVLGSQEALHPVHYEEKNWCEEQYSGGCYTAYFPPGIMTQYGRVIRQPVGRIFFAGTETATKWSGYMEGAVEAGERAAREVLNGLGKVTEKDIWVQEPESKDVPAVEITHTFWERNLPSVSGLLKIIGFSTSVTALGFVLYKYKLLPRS

[2] = molecular target: T2, 5-hydroxytryptamine receptor 1A (Homo sapiens, UniProt P08908); assay type: functional, cell-based
T2 sequence (P08908 whole entry): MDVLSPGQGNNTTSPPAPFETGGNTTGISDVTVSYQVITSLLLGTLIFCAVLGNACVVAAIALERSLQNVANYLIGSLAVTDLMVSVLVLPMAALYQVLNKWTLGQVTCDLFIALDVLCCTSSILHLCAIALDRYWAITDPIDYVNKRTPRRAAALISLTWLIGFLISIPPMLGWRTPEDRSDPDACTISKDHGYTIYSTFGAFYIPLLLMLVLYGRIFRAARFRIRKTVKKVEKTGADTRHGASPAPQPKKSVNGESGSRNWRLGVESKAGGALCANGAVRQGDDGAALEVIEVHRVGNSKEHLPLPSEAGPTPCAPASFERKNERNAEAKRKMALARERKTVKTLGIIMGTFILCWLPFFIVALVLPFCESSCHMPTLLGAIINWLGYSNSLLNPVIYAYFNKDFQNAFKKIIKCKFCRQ

[3] = molecular target: T3, 5-hydroxytryptamine receptor 2C (Homo sapiens, UniProt P28335)
T3 sequence (P28335 whole entry): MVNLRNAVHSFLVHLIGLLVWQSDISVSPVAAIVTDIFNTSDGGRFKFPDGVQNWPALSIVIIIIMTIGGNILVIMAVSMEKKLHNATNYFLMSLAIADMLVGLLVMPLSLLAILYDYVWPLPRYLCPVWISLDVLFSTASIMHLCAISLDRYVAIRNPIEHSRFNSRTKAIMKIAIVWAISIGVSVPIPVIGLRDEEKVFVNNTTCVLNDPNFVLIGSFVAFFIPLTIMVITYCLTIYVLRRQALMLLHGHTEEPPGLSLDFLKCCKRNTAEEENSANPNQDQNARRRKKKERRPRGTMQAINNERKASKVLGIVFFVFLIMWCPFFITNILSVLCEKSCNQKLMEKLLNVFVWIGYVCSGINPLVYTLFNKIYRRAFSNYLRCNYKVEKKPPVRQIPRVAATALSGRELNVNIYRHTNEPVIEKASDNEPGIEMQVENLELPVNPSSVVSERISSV

[4] = molecular target: Gamma-aminobutyric acid receptor subunit alpha-1 (Rattus norvegicus, UniProt P62813); assay type: functional
Sequence of Gamma-aminobutyric acid receptor subunit alpha-1 (P62813 whole entry): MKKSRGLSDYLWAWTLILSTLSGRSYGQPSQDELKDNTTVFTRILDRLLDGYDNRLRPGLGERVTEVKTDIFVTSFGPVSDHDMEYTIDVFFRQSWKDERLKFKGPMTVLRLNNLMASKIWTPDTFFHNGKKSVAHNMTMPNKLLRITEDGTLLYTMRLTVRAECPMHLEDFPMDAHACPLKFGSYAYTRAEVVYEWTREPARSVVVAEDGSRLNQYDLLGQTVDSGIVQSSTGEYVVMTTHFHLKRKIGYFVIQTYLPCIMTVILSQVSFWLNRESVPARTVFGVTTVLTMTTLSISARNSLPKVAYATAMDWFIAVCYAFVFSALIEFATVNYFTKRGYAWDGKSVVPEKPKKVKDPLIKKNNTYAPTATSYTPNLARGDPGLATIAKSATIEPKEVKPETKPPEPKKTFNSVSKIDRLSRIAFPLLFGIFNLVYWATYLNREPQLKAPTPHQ

[5] = molecular target: Sodium-dependent noradrenaline transporter (Homo sapiens, UniProt P23975)
Sequence of Sodium-dependent noradrenaline transporter (P23975 whole entry): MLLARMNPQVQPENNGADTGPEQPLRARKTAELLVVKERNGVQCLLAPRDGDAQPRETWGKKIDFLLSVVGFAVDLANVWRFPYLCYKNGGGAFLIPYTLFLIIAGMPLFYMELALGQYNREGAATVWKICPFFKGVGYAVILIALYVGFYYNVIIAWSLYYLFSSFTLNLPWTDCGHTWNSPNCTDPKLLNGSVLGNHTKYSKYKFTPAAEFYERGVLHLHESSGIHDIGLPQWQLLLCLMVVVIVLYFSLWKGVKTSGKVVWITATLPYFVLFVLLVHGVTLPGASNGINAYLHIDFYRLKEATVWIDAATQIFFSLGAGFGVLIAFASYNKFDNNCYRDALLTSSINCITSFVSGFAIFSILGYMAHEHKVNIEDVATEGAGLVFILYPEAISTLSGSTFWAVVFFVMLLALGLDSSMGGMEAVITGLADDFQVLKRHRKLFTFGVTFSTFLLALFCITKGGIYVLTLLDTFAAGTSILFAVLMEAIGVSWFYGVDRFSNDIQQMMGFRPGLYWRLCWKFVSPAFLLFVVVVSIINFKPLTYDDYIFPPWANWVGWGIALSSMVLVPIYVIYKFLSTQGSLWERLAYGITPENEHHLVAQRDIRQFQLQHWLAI

[6] = molecular target: T4, Muscarinic acetylcholine receptor M2 (Homo sapiens, UniProt P08172); assay type: functional, cell-based
T4 sequence (P08172 whole entry): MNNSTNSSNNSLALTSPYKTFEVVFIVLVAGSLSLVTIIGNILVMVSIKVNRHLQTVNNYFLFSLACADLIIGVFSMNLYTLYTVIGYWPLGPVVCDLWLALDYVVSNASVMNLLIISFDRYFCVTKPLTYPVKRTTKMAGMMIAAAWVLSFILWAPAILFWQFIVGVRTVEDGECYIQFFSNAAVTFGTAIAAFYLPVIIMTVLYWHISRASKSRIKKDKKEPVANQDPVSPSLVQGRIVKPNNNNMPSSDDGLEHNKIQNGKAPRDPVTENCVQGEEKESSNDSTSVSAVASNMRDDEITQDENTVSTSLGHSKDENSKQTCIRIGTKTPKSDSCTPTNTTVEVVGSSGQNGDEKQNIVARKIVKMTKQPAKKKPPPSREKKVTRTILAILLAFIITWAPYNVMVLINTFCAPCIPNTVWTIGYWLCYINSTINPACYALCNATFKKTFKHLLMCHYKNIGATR

[7] = molecular target: Voltage-gated inwardly rectifying potassium channel KCNH2 (Homo sapiens, UniProt Q12809); assay type: functional; conditions: read-out: AC50
Sequence of Voltage-gated inwardly rectifying potassium channel KCNH2 (Q12809 whole entry): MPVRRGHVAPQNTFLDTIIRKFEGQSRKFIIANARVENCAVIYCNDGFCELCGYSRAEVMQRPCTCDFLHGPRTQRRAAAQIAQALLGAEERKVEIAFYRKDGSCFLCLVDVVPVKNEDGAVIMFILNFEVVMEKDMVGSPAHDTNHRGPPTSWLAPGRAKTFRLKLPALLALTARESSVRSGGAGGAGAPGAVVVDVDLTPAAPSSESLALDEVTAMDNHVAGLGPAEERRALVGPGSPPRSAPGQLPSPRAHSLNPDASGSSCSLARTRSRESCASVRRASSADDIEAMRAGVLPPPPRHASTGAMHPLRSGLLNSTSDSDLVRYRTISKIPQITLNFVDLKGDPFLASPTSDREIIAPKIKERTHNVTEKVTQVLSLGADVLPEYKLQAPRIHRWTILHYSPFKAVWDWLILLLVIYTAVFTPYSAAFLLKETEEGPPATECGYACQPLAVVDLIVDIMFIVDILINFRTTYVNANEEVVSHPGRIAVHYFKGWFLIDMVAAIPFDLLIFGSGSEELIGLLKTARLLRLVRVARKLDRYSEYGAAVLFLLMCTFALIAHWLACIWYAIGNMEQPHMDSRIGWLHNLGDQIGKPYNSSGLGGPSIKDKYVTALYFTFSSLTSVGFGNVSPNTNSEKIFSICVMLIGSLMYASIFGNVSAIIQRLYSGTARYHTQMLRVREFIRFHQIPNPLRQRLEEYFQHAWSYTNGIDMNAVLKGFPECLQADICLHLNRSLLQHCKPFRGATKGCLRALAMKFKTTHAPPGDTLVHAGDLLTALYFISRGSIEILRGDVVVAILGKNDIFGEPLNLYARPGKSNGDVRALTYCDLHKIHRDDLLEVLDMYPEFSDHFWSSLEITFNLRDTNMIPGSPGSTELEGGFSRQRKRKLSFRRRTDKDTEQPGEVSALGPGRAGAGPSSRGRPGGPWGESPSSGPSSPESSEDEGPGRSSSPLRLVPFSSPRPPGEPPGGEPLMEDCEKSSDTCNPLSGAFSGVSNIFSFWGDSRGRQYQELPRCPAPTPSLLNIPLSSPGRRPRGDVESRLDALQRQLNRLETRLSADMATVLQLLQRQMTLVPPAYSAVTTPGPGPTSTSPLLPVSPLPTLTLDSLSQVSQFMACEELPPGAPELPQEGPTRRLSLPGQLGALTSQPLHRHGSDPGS

D(1A) dopamine receptor = D(1A) dopamine receptor (Homo sapiens, UniProt P21728); assay type: functional, cell-based
Sequence of D(1A) dopamine receptor (P21728 whole entry): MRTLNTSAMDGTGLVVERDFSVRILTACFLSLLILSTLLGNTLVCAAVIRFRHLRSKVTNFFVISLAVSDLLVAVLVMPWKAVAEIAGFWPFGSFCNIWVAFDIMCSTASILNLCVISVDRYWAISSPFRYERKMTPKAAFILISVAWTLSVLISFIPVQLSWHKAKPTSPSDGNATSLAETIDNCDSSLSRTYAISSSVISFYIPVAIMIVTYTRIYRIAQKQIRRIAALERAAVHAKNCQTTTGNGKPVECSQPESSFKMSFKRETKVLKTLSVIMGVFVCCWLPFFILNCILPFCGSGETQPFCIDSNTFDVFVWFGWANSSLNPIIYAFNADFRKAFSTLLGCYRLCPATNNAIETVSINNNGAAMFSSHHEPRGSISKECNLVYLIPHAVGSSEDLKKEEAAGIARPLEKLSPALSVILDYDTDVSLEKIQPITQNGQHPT

[8] = molecular target: T5, Alpha-2A adrenergic receptor (Homo sapiens, UniProt P08913); assay type: functional, cell-based
T5 sequence (P08913 whole entry): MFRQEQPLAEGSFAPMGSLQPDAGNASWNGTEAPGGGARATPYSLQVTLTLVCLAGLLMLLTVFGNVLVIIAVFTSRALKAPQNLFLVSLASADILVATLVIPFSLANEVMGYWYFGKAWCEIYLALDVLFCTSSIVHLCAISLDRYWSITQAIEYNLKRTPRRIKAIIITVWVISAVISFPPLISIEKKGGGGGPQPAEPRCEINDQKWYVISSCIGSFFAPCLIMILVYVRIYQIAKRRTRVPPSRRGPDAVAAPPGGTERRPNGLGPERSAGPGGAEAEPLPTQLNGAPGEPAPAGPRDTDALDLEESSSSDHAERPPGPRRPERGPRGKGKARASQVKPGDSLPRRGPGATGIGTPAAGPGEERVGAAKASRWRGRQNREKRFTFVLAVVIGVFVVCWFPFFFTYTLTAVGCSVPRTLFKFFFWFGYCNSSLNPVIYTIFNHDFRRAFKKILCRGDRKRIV

[9] = molecular target: Growth hormone secretagogue receptor type 1 (Homo sapiens, UniProt Q92847)
Sequence of Growth hormone secretagogue receptor type 1 (Q92847 whole entry): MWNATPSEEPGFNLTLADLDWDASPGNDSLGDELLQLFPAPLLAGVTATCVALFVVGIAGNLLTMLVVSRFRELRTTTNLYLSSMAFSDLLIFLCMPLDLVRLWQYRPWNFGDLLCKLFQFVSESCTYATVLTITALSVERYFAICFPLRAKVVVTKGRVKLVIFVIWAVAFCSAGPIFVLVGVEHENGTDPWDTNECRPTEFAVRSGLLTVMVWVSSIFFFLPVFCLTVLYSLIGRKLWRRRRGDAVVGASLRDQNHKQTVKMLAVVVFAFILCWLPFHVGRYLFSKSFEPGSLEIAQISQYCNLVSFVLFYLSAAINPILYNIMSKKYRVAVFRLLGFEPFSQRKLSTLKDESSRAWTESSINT

[10] = molecular target: 3',5'-cyclic-AMP phosphodiesterase 4D (Homo sapiens, UniProt Q08499); assay type: functional
Sequence of 3',5'-cyclic-AMP phosphodiesterase 4D (Q08499 whole entry): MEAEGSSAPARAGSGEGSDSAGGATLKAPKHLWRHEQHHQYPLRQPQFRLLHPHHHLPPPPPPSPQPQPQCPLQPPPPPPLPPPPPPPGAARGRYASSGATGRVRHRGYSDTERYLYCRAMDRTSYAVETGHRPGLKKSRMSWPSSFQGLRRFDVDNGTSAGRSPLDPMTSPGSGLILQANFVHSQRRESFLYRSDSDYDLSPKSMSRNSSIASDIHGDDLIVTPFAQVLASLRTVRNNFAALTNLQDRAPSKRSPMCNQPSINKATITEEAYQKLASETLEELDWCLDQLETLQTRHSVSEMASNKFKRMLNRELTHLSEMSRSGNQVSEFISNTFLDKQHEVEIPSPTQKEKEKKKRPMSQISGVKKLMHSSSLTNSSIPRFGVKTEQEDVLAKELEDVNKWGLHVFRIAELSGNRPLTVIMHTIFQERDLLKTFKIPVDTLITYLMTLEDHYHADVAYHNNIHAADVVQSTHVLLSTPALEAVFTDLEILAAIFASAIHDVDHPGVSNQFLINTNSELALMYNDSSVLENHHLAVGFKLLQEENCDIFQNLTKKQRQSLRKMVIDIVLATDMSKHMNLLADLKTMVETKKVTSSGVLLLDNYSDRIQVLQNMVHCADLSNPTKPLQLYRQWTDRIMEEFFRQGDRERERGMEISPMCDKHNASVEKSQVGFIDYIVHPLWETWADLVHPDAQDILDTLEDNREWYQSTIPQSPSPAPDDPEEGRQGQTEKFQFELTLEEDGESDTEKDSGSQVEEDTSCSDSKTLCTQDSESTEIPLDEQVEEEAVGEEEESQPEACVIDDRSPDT
Note: assay procedure not described here.

SMILES | AC50 [1] [µM] | AC50 [2] [µM] | AC50 [3] [µM] | AC50 [4] [µM] | AC50 [5] [µM] | AC50 [6] [µM] | AC50 [7] [µM] | AC50 (D(1A) dopamine receptor) [µM] | AC50 [8] [µM] | AC50 [9] [µM] | AC50 [10] [µM]
COC(=O)N[C@H](C(=O)N[C@@H](Cc1ccccc1)[C@@H](O)CN(Cc1ccc(-c2ccccn2)cc1)NC(=O)[C@@H](NC(=O)OC)C(C)(C)C)C(C)(C)C [ATAZANAVIR] | > 10 | > 10 | > 30 | > 10 | > 30 | > 10 | > 30 | > 10 | > 10 | 10.6 | > 30
Oc1ncnc2[nH]ncc12 [ALLOPURINOL] | > 30 | > 10 | > 30 | > 10 | > 10 | > 10 | > 30 | > 10 | > 10 | > 30 | > 30
NC(=O)c1cnccn1 [PYRAZINAMIDE] | > 30 | > 30 | > 30 | > 30 | > 30 | > 30 | > 30 | > 30 | > 30 | > 30 | > 30
Cc1ccc(C(=O)c2cc(O)c(O)c([N+](=O)[O-])c2)cc1 [TOLCAPONE] | > 10 | > 10 | > 10 | > 10 | 12.9 | > 10 | 1.95 | > 10 | > 10 | > 10 | > 30
COc1ccc2c(c1)C(=O)N(CCc1ccc(S(=O)(=O)NC(=O)NC3CCCCC3)cc1)C(=O)C2(C)C [GLIQUIDONE] | > 30 | > 30 | > 30 | > 30 | > 30 | > 30 | > 30 | > 30 | > 30 | > 30 | 1.4
CC(=O)c1ccc2c(c1)N(CCCN1CCN(CCO)CC1)c1ccccc1S2 [ACETOPHENAZINE] | > 30 | > 30 | > 30 | > 30 | 17 | > 30 | 2.3 | > 30 | > 30 | > 30 | > 30
CC(C(=O)O)c1ccc(C(=O)c2cccs2)cc1 (stereo not given) [SUPROFEN] | > 10 | > 10 | > 30 | > 10 | > 10 | > 10 | > 30 | > 10 | > 10 | > 10 | > 30
NC(=O)c1ncn([C@@H]2O[C@H](CO)[C@@H](O)[C@H]2O)c1O [MIZORIBINE] | > 30 | > 30 | > 30 | > 10 | > 30 | > 30 | > 30 | > 30 | > 30 | > 30 | > 30
CN1C(=O)CC(C)(c2ccccc2)C1=O (stereo not given) [METHSUXIMIDE] | > 10 | > 10 | > 30 | > 10 | > 10 | > 10 | > 30 | > 30 | > 10 | > 10 | > 30
NC[C@H]1CC[C@H](C(=O)O)CC1 [TRANEXAMIC ACID] | > 10 | > 10 | > 30 | > 10 | > 10 | > 10 | > 30 | > 30 | > 10 | > 10 | > 30
